Results from US5382568A, “Decapeptide having dopamine stimulating activity” (Arizona Board of Regents, priority 1993, dated 1995).
Residues, ends and D or L forms follow the SMILES beside them. No end group written: not given here.

How the values were obtained:
serum LH = assay: Acute effect of intravenous injection on serum LH (radioimmunoassay); format: in vivo; settings: rats, intravenous 5.0 micrograms, as LH-RP-2 standard
Procedure: (§1) For intravenous peptide injections anesthetized rats were fitted surgically with indwelling intra-arterial cannulae 24 hours before the tests. The next day samples of arterial blood were withdrawn from the unanesthetized rats immediately before and after the injection of graded doses of the pineal antigonadotropin. Prolactin and LH were measured in the blood samples by standard double antibody radioimmunoassay with kits provided by the National Hormone and Pituitary Program. The acute effects of 5.0 micrograms of the antigonadotropin are illustrated in the table below:
(§2) Values for LH are expressed as the National Institutes of Health reference standard LH-RP-2. Means±S.E.M. are indicated (n=5)

serum PRL = assay: Acute effect of intravenous injection on serum PRL (radioimmunoassay); format: in vivo; settings: rats, intravenous 5.0 micrograms
Procedure: as §1, §2

[1] = tested on: rat hypothalamic median eminence strips; assay: Dopamine release from hypothalamic median eminence strips in vitro; settings: for Release of dopamine from rat hypothalamus in vitro (in words): median eminence strips
Procedure: Rat hypothalamic median eminence strips were rapidly dissected and placed in culture plates containing 100 μl of a Kreb's solution saturated with O2 in accord with the procedure described in Racke, K. and E. Muscholl, J. of Neurochemistry 46:745, 1986. The median eminence strips were maintained at 37° C. under 95% O2 /5%CO2 in a Dubnoff shaking incubator. The media were replaced after a ten minute pre-incubation period. 50 μl samples were taken at 30, 60 and 90 min of incubation for catecholamine determination, with replacement of the removed media. 20 μl of 0.1M perchloric acid were added to each sample before storage at -20°. Media contents of dopamine, norepinephrine and various indoleamine and catecholamine metabolites were determined by HPLC coupled with electrochemical detection in accord with the procedure described in Gregory, V. M., B. Larsen and B. Benson, J. of Chromatography 345:140-144,1985.

[2] = tested on: anterior pituitary dopamine content; assay: Acute effect of a single subcutaneous injection on anterior pituitary dopamine content; format: in vivo; settings: mice; for Pituitary dopamine content: single subcutaneous injection of 25 nanograms
[3] = tested on: male and female rats and mice; assay: Antigonadotropic effects after chronic daily subcutaneous injection; format: in vivo; settings: two to four weeks
Procedure: The neurotropic pineal antigonadotropin of the present invention was assayed in vivo, as is described below. Natural and synthetic analogs were injected into male and female rats and mice in graded doses. Antigonadotropic effects were assessed after a period of chronic daily subcutaneous injection in a variety of solvents/carriers, e.g. physiological saline or corn oil. […] Additionally, blood levels of the gonadal steroids (testosterone in males and estrogens in females) were reduced.

[4] = tested on: pituitary secretion of LH and PRL; assay: Intravenous or intracerebroventricular injections: pituitary secretion of LH and PRL; format: in vivo

Molecule | Serum LH (serum LH; postinjection time 0') [ng/mL] | Serum LH (serum LH; postinjection time 15') [ng/mL] | Serum LH (serum LH; postinjection time 30') [ng/mL] | Serum LH (serum LH; postinjection time 45') [ng/mL] | Serum LH (serum LH; postinjection time 60') [ng/mL] | Serum PRL (serum PRL; postinjection time 0') | Serum PRL (serum PRL; postinjection time 15') | Serum PRL (serum PRL; postinjection time 30') | Serum PRL (serum PRL; postinjection time 45') | Serum PRL (serum PRL; postinjection time 60') | other results
C[C@@H](O)[C@H](NC(=O)[C@H](CCCCN)NC(=O)[C@@H](NC(=O)[C@@H](NC(=O)[C@@H]1CCCN1C(=O)[C@H](Cc1ccccc1)NC(=O)[C@@H](N)CO)[C@@H](C)O)[C@@H](C)O)C(=O)N[C@@H](Cc1ccc(O)cc1)C(=O)N[C@@H](Cc1ccccc1)C(=O)N1CCC[C@H]1C(=O)O [PAG (1), NH2 -Ser-Phe-Pro-Thr-Thr-Lys-Thr-Tyr-Phe-Pro-COOH] (H-SFPTTKTYFP-OH) | 0.25 | 0.21 | 0.15 | 0.10 | 0.14 | 100 ± 11 % of Initial Control Value | 55 ± 6 % of Initial Control Value | 38 ± 6 % of Initial Control Value | 31 ± 4 % of Initial Control Value | 22 ± 5 % of Initial Control Value | 
C[C@@H](O)[C@H](NC(=O)[C@H](CCCCN)NC(=O)[C@@H](NC(=O)[C@@H](NC(=O)[C@@H]1CCCN1C(=O)[C@H](Cc1ccccc1)NC(=O)[C@@H](N)CO)[C@@H](C)O)[C@@H](C)O)C(=O)N[C@@H](Cc1ccc(O)cc1)C(=O)N[C@@H](Cc1ccccc1)C(=O)N1CCC[C@H]1C(=O)O [PAG (2), NH2 -Ser-Phe-Pro-Thr-Thr-Lys-Thr-Tyr-Phe-Pro-COOH] (H-SFPTTKTYFP-OH) | 0.26 | 0.20 | 0.15 | 0.12 | 0.11 | 100 ± 8 % of Initial Control Value | 44 ± 6 % of Initial Control Value | 30 ± 3 % of Initial Control Value | 25 ± 3 % of Initial Control Value | 32 ± 6 % of Initial Control Value | Release of dopamine from rat hypothalamus in vitro (in words) ([1]; listed as synthetic decapeptide): effectively stimulates the release of dopamine into the incubation medium
SFPTTKTYFP [PAG, NH2 -Ser-Phe-Pro-Thr-Thr-Lys-Thr-Tyr-Phe-Pro-COOH] |  |  |  |  |  |  |  |  |  |  | Anterior pituitary dopamine content (in words) ([2]; single injection of 25 nanograms): significant increase in anterior pituitary dopamine content; Pituitary dopamine content ([2]; postinjection time 0'): 0.539 ± 0.046 nanograms per mg of pituitary; Pituitary dopamine content ([2]; postinjection time 15'): 0.795 ± 0.064 nanograms per mg of pituitary; Pituitary dopamine content ([2]; postinjection time 30'): 1.801 ± 0.126 nanograms per mg of pituitary; Dopamine released into the incubation medium (accumulative) ([1]; 10^-5 M, incubation time 30'): 35.2 ± 7.6 pg/µL; Dopamine released into the incubation medium (accumulative) ([1]; 10^-5 M, incubation time 60'): 100.2 ± 13 pg/µL; Dopamine released into the incubation medium (accumulative) ([1]; 10^-5 M, incubation time 90'): 182.9 ± 13.7 pg/µL; Dopamine released into the incubation medium (accumulative) ([1]; 10^-7 M, incubation time 30'): 27.2 ± 2.1 pg/µL; Dopamine released into the incubation medium (accumulative) ([1]; 10^-7 M, incubation time 60'): 61.5 ± 5.3 pg/µL; Dopamine released into the incubation medium (accumulative) ([1]; 10^-7 M, incubation time 90'): 109.3 ± 10.8 pg/µL; Release of dopamine from rat hypothalamus in vitro (in words) ([1]; listed as pineal antigonadotropic decapeptide): stimulates the release of dopamine; Pituitary and blood levels of gonadotropins and prolactin [3]: reductions of pituitary and blood levels of gonadotropins and prolactin; Pituitary, gonadal and accessory reproductive organ weights [3]: significant reductions in pituitary, gonadal and accessory reproductive organ weights; Release of pituitary LH (pulsatile) ([4]; intracerebroventricular infusions): inhibited release of pituitary LH, reducing both the amplitude and frequency of pulsatile LH release into the blood; Pituitary secretion of LH and PRL ([4]; intravenous or intracerebroventricular injections): demonstrable inhibitory effects on pituitary secretion of LH and PRL
